Converted amounts (≈) assume the structure as drawn.
How the values were obtained:
Cytochrome P450 2C8 = biological target: T1, Cytochrome P450 2C8 (Homo sapiens, UniProt P10632); assay: Inhibition of CYP2C8 (unknown origin); type: ADME
T1 sequence (P10632 whole entry): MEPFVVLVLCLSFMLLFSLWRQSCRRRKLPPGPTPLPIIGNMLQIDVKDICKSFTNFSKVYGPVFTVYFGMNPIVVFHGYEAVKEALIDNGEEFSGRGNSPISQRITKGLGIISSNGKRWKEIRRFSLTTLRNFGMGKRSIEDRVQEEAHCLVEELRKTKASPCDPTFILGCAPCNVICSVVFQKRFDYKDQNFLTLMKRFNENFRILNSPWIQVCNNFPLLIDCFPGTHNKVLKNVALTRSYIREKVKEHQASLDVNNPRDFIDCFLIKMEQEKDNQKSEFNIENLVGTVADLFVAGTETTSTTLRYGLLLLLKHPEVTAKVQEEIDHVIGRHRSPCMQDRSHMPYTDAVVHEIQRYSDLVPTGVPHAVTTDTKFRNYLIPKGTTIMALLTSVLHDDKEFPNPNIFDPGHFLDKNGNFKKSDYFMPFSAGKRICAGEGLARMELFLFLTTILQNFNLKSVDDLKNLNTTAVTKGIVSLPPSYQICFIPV

[1] = Dissociation constant, pKa of the compound; type: physicochemical
[2] = biological target: T2, Transient receptor potential cation channel subfamily A member 1 (Homo sapiens, UniProt O75762); assay: Antagonist activity at human TRPA1 oS5 chimera containing (870 to 896 residues) expressed in 293-T-REx cells at holding potential of 15 mV measured after 1 min by PatchXpress electrophysiology assay; type: cell-based
[3] = biological target: T2, Transient receptor potential cation channel subfamily A member 1; assay: Antagonist activity at full length human TRPA1 at holding potential of 15 mV measured after 1 min by PatchXpress electrophysiology assay
[4] = biological target: T3, Voltage-gated inwardly rectifying potassium channel KCNH2 (Homo sapiens, UniProt Q12809); assay: Inhibition of human ERG
[5] = Inhibition of GABA-A (unknown origin); design: species or system Homo sapiens
[6] = Antagonist activity at opossum TRPA1 hS5 chimera containing (867 to 983 residues) expressed in 293-T-REx cells at holding potential of 15 mV measured after 1 min by PatchXpress electrophysiology assay; type: cell-based; conditions: Monodelphis domestica, 293Trex
Hepatocyte [7] = assay: Stability in rat hepatocytes; type: ADME, cell-based
[8] = Thermodynamic solubility of the compound; type: physicochemical; conditions: read-out: Therm_solubility
[9] = Stability in dog plasma; type: ADME, cell-free, Canis lupus familiaris; conditions: read-out: Stability
[10] = Stability in rat plasma; type: ADME, cell-free; conditions: read-out: Stability
[11] = biological target: T3, Voltage-gated inwardly rectifying potassium channel KCNH2; assay: Inhibition of dofetilide binding to human ERG
[12] = biological target: Potassium voltage-gated channel subfamily A member 5 (Homo sapiens) (UniProt P22460); assay: Inhibition of Kv1.5 (unknown origin)
[13] = Stability in human liver microsomes assessed as metabolic turnover number at 10 uM after 15 mins by LC-MS/UV analysis; type: ADME, microsome; conditions: read-out: Stability
[14] = Clearance in rat; type: ADME, organism-based; conditions: in vivo
[15] = Drug uptake in Sprague-Dawley rat skin epidermal layer at 0.68 mg applied topically measured after 24 hrs; type: ADME, tissue-based, Skin epidermis; conditions: topical or ocular, read-out: Drug uptake
[16] = Antagonist activity at pig TRPA1 by electrophysiology assay; design: species or system Sus scrofa
[17] = Kinetic solubility of the compound at pH 6.5; type: physicochemical; conditions: buffer, read-out: Kinetic_solubility
[18] = Antagonist activity at full length opossum TRPA1 at holding potential of 15 mV measured after 1 min by PatchXpress electrophysiology assay; design: species or system Monodelphis domestica
[19] = Passive permeability of the compound in RRCK cells; type: ADME, cell-based, Canis lupus familiaris, MDCKII-LE; conditions: dog, MDCK; read-out: permeability
[20] = biological target: Transient receptor potential cation channel subfamily M member 8 (Homo sapiens, UniProt Q7Z2W7); assay: Inhibition of human TRPM8
[21] = biological target: Sodium channel protein type 5 subunit alpha (Homo sapiens, UniProt Q14524); assay: Inhibition of Nav1.5 (unknown origin)
[22] = Fraction unbound in dog plasma; type: ADME, cell-free, Canis lupus familiaris
Hepatocyte [23] = assay: Stability in human hepatocytes; type: ADME, cell-based
Salmonella typhimurium = assay: Genotoxicity in Salmonella typhimurium by Ames test; type: toxicity, organism-based; conditions: salmonella enterica subsp. enterica serovar typhimurium
[24] = Lipophilicity, log D of the compound; type: physicochemical; conditions: octanol/water
[25] = Permeability in Sprague-Dawley rat skin at 0.68 mg applied topically measured after 24 hrs; type: ADME, tissue-based, Zone of skin; conditions: in vivo, topical_or_ocular
[26] = biological target: T4, Potassium voltage-gated channel subfamily KQT member 1 (Homo sapiens, UniProt P51787); assay: Inhibition of KvLQT1 (unknown origin)
T4 sequence (P51787 whole entry): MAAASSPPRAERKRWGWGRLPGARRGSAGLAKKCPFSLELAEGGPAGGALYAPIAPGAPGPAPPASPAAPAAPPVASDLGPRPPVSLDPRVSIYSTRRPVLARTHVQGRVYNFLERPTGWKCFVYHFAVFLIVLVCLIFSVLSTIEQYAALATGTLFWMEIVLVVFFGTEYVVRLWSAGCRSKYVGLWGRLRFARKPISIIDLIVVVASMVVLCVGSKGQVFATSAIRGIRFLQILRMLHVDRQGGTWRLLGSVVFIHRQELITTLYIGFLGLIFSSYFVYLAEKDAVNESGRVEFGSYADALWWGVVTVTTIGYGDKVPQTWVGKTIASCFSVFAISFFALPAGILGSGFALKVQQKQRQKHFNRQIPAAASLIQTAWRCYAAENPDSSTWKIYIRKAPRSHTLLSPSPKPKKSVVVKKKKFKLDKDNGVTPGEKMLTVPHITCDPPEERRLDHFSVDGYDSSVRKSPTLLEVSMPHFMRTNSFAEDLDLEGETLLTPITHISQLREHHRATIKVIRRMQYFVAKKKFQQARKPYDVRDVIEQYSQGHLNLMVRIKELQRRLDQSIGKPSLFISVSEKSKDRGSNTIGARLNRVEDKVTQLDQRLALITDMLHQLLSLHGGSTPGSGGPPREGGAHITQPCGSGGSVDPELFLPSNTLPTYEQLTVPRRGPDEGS

Cytochrome P450 2C9 = Cytochrome P450 2C9 (Homo sapiens, UniProt P11712); assay: Inhibition of CYP2C9 (unknown origin); type: ADME
[27] = biological target: Transient receptor potential cation channel subfamily A member 1 (Rattus norvegicus, UniProt Q6RI86); assay: Antagonist activity at rat TRPA1 by electrophysiology assay
[28] = biological target: Transient receptor potential cation channel subfamily A member 1 (Mus musculus, UniProt Q8BLA8); assay: Antagonist activity at mouse TRPA1 by electrophysiology assay
[29] = Ratio of permeability from basolateral to apical side over apical to basolateral side in RRCK cells expressing MDR1; type: ADME, cell-based, Canis lupus familiaris; conditions: dog, mdckii-le
[30] = Stability in rat liver microsomes; type: ADME, microsome; conditions: read-out: Stability
Cytochrome P450 3A4 = Cytochrome P450 3A4 (Homo sapiens, UniProt P08684); assay: Inhibition of CYP3A4 (unknown origin); type: ADME
[31] = Oral bioavailability in rat; type: ADME, organism-based; conditions: in vivo
[32] = Half life in rat; type: ADME, organism-based; conditions: in vivo
[33] = Inhibition of sodium channel site 2 (unknown origin); design: species or system Homo sapiens
[34] = biological target: Transient receptor potential cation channel subfamily V member 1 (Homo sapiens, UniProt Q8NER1); assay: Inhibition of human TRPV1

T3 sequence (Q12809 whole entry): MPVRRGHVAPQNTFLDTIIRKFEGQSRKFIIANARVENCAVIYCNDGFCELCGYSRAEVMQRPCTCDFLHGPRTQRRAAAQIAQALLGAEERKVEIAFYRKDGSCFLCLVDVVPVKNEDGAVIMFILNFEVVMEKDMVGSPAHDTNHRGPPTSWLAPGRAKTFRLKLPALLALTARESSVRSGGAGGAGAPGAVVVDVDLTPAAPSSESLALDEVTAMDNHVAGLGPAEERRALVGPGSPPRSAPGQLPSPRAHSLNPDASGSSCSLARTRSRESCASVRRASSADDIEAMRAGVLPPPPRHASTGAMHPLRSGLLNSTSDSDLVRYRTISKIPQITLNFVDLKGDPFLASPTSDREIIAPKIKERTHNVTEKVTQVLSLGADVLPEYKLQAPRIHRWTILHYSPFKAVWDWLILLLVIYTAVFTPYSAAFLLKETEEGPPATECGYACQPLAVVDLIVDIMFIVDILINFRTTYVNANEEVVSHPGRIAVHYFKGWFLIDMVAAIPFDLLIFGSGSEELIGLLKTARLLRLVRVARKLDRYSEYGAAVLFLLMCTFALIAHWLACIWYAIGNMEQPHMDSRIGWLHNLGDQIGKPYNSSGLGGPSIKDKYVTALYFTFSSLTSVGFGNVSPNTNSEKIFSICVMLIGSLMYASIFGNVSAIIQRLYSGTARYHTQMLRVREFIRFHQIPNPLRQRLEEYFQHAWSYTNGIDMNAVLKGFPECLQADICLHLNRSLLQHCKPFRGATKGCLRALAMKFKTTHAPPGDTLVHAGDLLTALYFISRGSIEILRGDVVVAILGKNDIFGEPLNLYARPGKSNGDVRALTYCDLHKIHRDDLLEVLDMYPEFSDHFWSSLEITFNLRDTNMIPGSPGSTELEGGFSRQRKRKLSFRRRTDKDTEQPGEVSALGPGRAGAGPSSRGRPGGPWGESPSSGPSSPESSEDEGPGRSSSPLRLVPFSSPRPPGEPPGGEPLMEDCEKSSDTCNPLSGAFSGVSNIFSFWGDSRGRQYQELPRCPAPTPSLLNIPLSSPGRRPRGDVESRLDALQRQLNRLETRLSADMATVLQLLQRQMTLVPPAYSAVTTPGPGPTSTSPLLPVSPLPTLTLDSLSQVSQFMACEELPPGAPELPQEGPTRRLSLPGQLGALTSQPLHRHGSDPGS
Chain of Cytochrome P450 2C9 (P11712 whole entry): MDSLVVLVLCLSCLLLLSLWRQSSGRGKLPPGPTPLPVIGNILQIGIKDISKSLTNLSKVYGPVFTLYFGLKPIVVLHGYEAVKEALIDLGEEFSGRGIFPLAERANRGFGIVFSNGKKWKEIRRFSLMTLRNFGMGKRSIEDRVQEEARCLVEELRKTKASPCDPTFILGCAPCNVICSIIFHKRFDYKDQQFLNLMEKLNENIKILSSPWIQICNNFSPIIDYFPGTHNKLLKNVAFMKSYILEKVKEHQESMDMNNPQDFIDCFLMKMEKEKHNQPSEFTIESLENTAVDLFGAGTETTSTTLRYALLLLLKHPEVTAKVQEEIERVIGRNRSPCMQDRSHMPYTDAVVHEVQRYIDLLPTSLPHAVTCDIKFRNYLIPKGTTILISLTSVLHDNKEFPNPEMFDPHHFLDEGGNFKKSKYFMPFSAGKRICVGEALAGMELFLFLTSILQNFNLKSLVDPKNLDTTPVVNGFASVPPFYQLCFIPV
Chain of Sodium channel protein type 5 subunit alpha (Q14524 whole entry): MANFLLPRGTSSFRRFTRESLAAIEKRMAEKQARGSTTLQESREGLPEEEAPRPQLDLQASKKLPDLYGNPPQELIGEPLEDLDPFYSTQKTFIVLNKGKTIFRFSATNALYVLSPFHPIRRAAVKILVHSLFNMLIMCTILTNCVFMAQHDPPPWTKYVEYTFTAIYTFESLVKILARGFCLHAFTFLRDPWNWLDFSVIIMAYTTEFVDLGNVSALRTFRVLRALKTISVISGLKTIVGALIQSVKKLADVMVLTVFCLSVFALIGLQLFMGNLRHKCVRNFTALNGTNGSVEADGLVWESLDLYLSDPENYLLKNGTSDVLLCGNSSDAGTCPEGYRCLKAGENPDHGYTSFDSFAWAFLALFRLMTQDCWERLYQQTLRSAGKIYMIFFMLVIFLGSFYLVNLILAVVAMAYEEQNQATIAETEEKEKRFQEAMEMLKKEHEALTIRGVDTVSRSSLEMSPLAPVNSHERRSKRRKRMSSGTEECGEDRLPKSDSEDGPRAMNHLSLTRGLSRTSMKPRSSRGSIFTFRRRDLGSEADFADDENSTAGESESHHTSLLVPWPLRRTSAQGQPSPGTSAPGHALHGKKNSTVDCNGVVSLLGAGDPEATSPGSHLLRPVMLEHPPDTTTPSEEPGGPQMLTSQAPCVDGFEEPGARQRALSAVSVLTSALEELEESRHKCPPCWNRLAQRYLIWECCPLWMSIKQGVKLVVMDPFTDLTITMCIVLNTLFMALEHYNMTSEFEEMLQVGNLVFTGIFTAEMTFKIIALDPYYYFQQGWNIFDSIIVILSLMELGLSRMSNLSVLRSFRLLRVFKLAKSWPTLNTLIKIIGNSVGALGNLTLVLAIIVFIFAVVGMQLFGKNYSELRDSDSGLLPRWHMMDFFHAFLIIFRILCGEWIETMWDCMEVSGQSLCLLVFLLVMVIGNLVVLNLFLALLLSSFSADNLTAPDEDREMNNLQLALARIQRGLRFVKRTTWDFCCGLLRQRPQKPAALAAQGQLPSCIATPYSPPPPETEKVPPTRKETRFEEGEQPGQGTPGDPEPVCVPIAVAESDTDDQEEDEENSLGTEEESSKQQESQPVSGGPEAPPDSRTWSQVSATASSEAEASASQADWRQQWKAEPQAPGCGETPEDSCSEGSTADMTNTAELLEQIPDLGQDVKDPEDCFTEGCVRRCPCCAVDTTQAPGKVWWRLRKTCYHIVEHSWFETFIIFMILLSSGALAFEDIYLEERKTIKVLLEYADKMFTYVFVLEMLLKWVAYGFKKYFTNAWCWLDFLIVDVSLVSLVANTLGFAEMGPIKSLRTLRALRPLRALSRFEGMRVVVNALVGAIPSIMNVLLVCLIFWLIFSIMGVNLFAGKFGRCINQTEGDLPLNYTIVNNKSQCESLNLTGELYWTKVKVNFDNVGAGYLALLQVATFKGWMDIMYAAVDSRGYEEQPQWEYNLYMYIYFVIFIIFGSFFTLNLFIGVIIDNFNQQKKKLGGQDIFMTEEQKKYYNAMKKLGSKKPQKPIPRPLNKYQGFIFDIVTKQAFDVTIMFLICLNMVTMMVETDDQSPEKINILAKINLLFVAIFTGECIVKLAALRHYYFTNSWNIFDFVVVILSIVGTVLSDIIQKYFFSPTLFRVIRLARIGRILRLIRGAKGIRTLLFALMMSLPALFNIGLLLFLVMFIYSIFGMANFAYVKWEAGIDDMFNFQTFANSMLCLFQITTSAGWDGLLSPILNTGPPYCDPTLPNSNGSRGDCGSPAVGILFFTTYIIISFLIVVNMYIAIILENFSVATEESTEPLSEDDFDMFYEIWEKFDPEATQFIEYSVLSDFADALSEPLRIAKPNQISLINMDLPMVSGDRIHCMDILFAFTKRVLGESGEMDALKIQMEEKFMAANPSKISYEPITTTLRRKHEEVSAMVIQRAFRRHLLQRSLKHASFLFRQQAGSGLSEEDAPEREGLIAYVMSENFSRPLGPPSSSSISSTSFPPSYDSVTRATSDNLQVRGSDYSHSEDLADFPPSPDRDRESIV
Chain of Transient receptor potential cation channel subfamily A member 1 (Rattus norvegicus, UniProt Q6RI86) (Q6RI86 whole entry): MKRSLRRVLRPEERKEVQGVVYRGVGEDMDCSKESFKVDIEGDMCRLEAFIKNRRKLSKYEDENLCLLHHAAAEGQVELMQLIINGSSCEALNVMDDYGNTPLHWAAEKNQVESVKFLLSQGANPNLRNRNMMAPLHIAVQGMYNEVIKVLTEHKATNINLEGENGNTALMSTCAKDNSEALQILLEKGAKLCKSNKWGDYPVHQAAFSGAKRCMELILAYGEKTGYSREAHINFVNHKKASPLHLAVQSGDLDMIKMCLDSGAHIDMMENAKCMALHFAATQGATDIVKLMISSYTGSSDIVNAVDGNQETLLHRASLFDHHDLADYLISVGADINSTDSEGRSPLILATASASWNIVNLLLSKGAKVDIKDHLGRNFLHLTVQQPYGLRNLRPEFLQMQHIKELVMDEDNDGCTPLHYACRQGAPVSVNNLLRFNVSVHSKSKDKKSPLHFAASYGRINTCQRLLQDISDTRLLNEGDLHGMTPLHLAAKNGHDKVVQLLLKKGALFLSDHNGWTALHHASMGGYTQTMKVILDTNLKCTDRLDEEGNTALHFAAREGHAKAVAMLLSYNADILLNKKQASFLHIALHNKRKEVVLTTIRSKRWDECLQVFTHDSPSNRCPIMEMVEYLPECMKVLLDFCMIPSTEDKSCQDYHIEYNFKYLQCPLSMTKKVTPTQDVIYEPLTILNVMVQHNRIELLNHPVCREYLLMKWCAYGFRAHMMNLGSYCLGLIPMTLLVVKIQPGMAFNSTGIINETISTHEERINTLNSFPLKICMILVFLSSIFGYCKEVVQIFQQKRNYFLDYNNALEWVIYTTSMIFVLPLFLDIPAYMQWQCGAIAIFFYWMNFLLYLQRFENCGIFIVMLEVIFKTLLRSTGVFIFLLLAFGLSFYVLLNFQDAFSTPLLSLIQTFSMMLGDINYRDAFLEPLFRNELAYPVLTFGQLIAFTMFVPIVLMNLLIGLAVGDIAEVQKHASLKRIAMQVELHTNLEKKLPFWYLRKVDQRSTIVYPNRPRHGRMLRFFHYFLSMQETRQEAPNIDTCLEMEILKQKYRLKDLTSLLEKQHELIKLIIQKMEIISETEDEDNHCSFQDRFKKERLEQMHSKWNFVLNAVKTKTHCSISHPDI

Compound: O=C(NC[C@@H](Cc1ccccc1)N1CCC(O)(C(F)(F)F)CC1)C1(c2ccc(Cl)cc2)CCCC1
- IC50 (Cytochrome P450 2C8): 11800 nM
- pKa [1]: 5.9
- IC50 [2]: 1580 nM
- IC50 [3]: 0.72 to 8 nM
- IC50 [4]: > 3000 nM
- IC50 [5]: 2300 nM
- IC50 [6]: 20 nM
- Stability (Hepatocyte [7]): 30 µL/min/mg
- solubility thermodynamic [8]: 0.6 µg/mL (≈ 1.18 µM)
- half-life [9]: > 6 h
- half-life [10]: > 6 h
- Ki [11]: 25700 nM
- INH [12]: > 3000 nM
- microsomal CLint at 10 µM [13]: 246 µL/min/mg
- clearance [14]: 42 mL/min/kg
- concentration at 24 h [15]: 3.13e+06 ng/g
- IC50 [16]: 65 nM
- solubility kinetic [17]: 12 µM (≈ 6.11 µg/mL)
- IC50 [18]: ≥ 3000 nM
- Papp [19]: 1 ×10⁻⁶ cm/s
- IC50 [20]: > 3000 nM
- INH [21]: > 3000 nM
- fraction unbound [22]: 0.0008
- Stability (Hepatocyte [23]): 38 µL/min/mg
- Activity (Salmonella typhimurium): Non-Toxic
- logD [24]: 4.7 to 5
- permeability [25]: 0.1 ×10⁻⁵ cm/hr
- INH [26]: > 3000 nM
- IC50 (Cytochrome P450 2C9): 11400 nM
- IC50 [27]: 3 nM
- IC50 [28]: 4 nM
- Ratio [29]: 11
- microsomal CLint [30]: 524 µL/min/mg
- IC50 (Cytochrome P450 3A4): 2160 nM
- bioavailability [31]: 5%
- half-life [32]: 4.4 h
- IC50 [33]: 730 nM
- IC50 [34]: > 3000 nM

From ChEMBL document CHEMBL4190175 (Medchemcomm, 2016)
